This is an account of results in US20100137300A1, “Indolizine Acetic Acid Derivatives as CRTH2 Antagonists” (priority 2007, published 2010).

This experiment addresses T1, CRTH2 receptor (Homo sapiens, UniProt Q9Y5Y4).
T1 construct: expressed in transfected cells; host or cells: Human embryonic kidney (HEK) cells, membranes
T1 sequence (Q9Y5Y4 1-395): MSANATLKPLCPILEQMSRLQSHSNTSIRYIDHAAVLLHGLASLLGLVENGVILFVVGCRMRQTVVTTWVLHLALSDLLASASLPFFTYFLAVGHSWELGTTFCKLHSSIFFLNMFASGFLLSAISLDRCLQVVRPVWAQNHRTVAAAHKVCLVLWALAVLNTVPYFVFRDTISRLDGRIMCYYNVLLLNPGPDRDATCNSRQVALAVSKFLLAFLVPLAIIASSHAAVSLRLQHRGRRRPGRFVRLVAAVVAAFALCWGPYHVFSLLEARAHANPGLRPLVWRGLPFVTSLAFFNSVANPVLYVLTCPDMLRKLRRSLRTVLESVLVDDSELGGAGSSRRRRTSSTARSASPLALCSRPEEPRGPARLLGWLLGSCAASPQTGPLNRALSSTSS
Nature of the experiment: CRTH2 radioligand binding assay ([3H]-PGD2 displacement). The settings on record: HEK cell membranes expressing the CRTH2 receptor, 1 nM [3H]-PGD2. Here is the method: The receptor binding assay is performed in a final volume of 200 μL binding buffer [10 mM BES (pH 7.4), 1 mM EDTA, 10 mM manganese chloride, 0.01% BSA] and 1 nM [^3H]-PGD2 (Amersham Biosciences UK Ltd). Ligands are added in assay buffer containing a constant amount of DMSO (1% by volume). Total binding is determined using 1% by volume of DMSO in assay buffer and non-specific binding is determined using 10 μM of unlabeled PGD2 (Sigma). Human embryonic kidney (HEK) cell membranes (3.5 μg) expressing the CRTH2 receptor are incubated with 1.5 mg wheatgerm agglutinin SPA beads and 1 nM [^3H]-PGD2 (Amersham Biosciences UK Ltd) and the mixture incubated for 3 hours at room temperature. Bound [^3H]-PGD2 is detected using a Microbeta TRILUX liquid scintillation counter (Perkin Elmer). Compound IC50 value is determined using a 6-point dose response curve in duplicate with a semi-log compound dilution series. IC50 calculations are performed using Excel and XLfit (Microsoft), and this value is used to determine a Ki value for the test compound using the Cheng-Prusoff equation.

Structures are written as SMILES.

`Cc1c(Cc2ccc(S(=O)(=O)N3CCOCC3)cc2)c2cc(C#N)ccn2c1CC(=O)O` [Example 1, {7-cyano-2-methyl-1-[4-(morpholine-4-sulfonyl)benzyl]indolizin-3-yl}acetic acid] displayed an IC50 of 58 nM. This counts as double-digit nanomolar.

The compound `Cc1c(Cc2ccc3cc(F)ccc3n2)c2cc(C#N)ccn2c1CC(=O)O` [Example 6, [7-cyano-1-(6-fluoroquinolin-2-ylmethyl)-2-methylindolizin-3-yl]acetic acid] gave an IC50 of 19 nM.
